Square brackets hold non-standard residues; d marks the D form. Ends that are not written are not given here. pS = N[C@@H](COP(=O)(O)O)C(=O)O
Assays:
HLA-DR4 = assay: Binding to human MHC class II molecule HLA-DR4; details: peptide 0.01-100 μM; FIG. 19
Description: (§1) FIG. 19: binding of the 131-151 and P140 peptides to the human major histocompatibility complex class II molecules; the results are expressed as a percentage of binding of the peptides to the HLA-DR1, -DR4 and DR11 molecules; the percentage inhibition is calculated as a function of the O.D. values measured in the presence of various concentrations of 131-151 and P140 peptides (0.01-100 μM).

HLA-DR11 = assay: Binding to human MHC class II molecule HLA-DR11; details: peptide 0.01-100 μM; FIG. 19
Description: as §1

[1] = tested on: CD4+ T cells of MRL/lpr lupic mice; assay: Recognition by CD4+ T cells of MRL/lpr lupic mice (ex vivo proliferation, IL-2 secretion); assay type: cell-based
Description: (§2) FIG. 1: recognition of the 131-151 peptide of the 70K protein by the CD4+ T cells of MRL/lpr (right column) or NZB/W lupic mice (left column); the peptide concentrations are indicated on the x-axis, the proliferation of the CD4+ T cells of MRL/lpr and BW mice, represented on the y-axis of the graphs of the first line, is measured ex vivo in the presence of the various concentrations of 131-151 peptide of the 70K protein; the proliferation is expressed in stimulation indices corresponding to the radioactivity incorporated in the DNA of the cells (in counts per minute) in the presence of peptide on the incorporation of radioactivity in the absence of peptide; the secretion of IL-2, represented on the y-axis of the graphs of the second line, is measured in the supernatants after 24 hrs of culture by a bio-assay; the IL-2 concentration is determined with a standard range of recombinant IL-2 and is expressed in mU/ml.
(§3) FIG. 13: recognition of the P140 peptide by the CD4^+ T lymphocytes (A) of MRL/lpr lupic mice; the graph on the left represents the proliferation of CD4^+ T cells expressed in stimulation indices as defined above in the presence of the 131-151 peptide, of the phosphorylated P137 and P140 peptides and of two scrambled peptides, phosphorylated or not phosphorylated (Sc and ScP); the positivity limit corresponds to 2.0; the graph on the right represents the secretion of IL-2 (mU/ml) in the presence of the 131-151 peptide, the P137 and P140 peptides and the Sc and ScP peptides; and by the antibodies (B) of MRL/lpr lupic mice; the results are expressed in titre of antibodies corresponding to the dilution allowing an O.D. value at 450 nm equal to 0.2 to be obtained in an ELISA test.

[2] = tested on: antibodies of MRL/lpr lupic mice; assay: Recognition by antibodies of MRL/lpr lupic mice (ELISA titre); assay type: binding; details: compared with the non-phosphorylated parent peptide; FIG. 13
Source text: as §3

HLA-DR1 = assay: Binding to human MHC class II molecule HLA-DR1; details: peptide 0.01-100 μM; FIG. 19
Description: as §1

[3] = tested on: pre-autoimmune MRL/lpr mice; assay: Administration to pre-autoimmune MRL/lpr mice, monitoring of disease development; assay type: in vivo
Description: The two peptides (phosphorylated in position 140 and non-phosphorylated) were used for a study of restoration of self-tolerance. These two peptides were injected by intravenous and intra-nasal route into preautoimmune mice, and the development of the disease in these mice was monitored.

[4] = tested on: antibodies of MRL/lpr lupic mice; details: among 20 overlapping peptides of the 70K protein; cited from earlier work
[5] = tested on: CD4+ T cells of NZB/W lupic mice; assay: Recognition by CD4+ T cells of NZB/W lupic mice; assay type: cell-based; details: FIG. 1
Description: as §2

[6] = tested on: major histocompatibility complex class II molecules (I-E^k, I-A^k, I-E^d, I-A^d); assay: Binding to murine MHC class II molecules (transfected fibroblasts, T hybridoma IL-2 competition); assay type: cell-based; details: murine (and human, as worded in b8); FIG. 2
Description: FIG. 2: binding of the 131-151 peptide to the molecules of the major histocompatibility complex of class II murines (I-E^k, I-A^k, I-E^d, I-A^d); fibroblasts transfected by the molecules I-E^k, or I-A^k, or I-E^d, or I-A^d are pre-incubated with different concentrations of the 131-151 peptide; after 30 minutes at 37° C., the 12-26CI or 16-33 analogue peptides of the β2-adrenergic receptor, as well as the respective T hybridomas which recognize these peptides in the adapted context (8I for I-E^k, E7E9 for I-A^k, 26.1 for I-E^d, and 26.2 for I-A^d) are added; the supernatants are recovered after 24 hrs of culture and the secretion of IL-2 is evaluated as previously; the results are expressed as a % inhibition representing the ability of the 131-151 peptide to inhibit the binding of the 12-26 CI and 16-33[…]2 analogue peptides to the class II molecules.

[7] = intravenous route, pre-autoimmune MRL/lpr mice, FIG. 14
[8] = in vitro, CD4+ T cells purified from the ganglia of MRL/lpr mice

Substance | binding to HLA-DR4 (HLA-DR4) | binding to HLA-DR11 (HLA-DR11) | recognition by the CD4+ T cells of lupic mice ([1]; compared with the non-phosphorylated parent peptide, FIG. 13) | recognition by the antibodies of lupic mice [2] | binding to HLA-DR1 (HLA-DR1) | appearance of glomerulonephritis ([3]; intranasal route, pre-autoimmune MRL/lpr mice, FIG. 14) | appearance of glomerulonephritis [3, 7] | production of antibodies directed against the DNA [3, 7] | survival of animals [3, 7] | proliferation of CD4+ T cells [1, 8] | secretion of IL-2 by CD4+ T cells [1, 8] | recognition by the antibodies of MRL/lpr lupic mice [4] | epitope of the 70K protein in the NZB/W mouse [5] | binding to major histocompatibility complex class II molecules [6] | proteinuria ([3]; group injected with the peptide, versus saline control) | effect of administration on anti-DNA antibodies, glomerulonephritis and survival ([3]; pre-autoimmune mice, listed as parent peptide) | mice survived ([3]; to 35 weeks, p=0.2 compared to the control mice) [%]
P140: sequence SEQ ID NO: 1 (RIHMVYSKRSGKPRGYAFIEY) in which the serine in position 10 is phosphorylated (RIHMVYSKR[pS]GKPRGYAFIEY; listed as Homo sapiens) | capable of binding | capable of binding | to the same extent as or even to a greater extent than the non-phosphorylated peptide | to the same extent as or even to a greater extent than the non-phosphorylated peptide | capable of binding | not by intranasal route | delays the appearance of glomerulonephritis | reduces the production of large numbers of antibodies directed against the DNA | prolongs the survival of animals | – | – | – | – | – | – | – | –
RIHMVYSKRSGKPRGYAFIEY (listed as Homo sapiens) [131-151] | capable of binding | capable of binding | – | – | capable of binding | – | – | – | – | capable of stimulating | capable of stimulating | recognized very early | major epitope | capable of binding | hardly reduced | does not on the other hand induce any statistically significant effect | 25

Source: US8475800B2, “Phosphorylated derivatives of a U1-70K peptide and their use in the treatment of autoimmune pathologies” (Centre National de la Recherche Scientifique, priority 2001, dated 2013)
